Measurements taken from the kinase profiling compilation of Christmann-Franck et al. (2016).
Values joined by “and” are separate entries in the source; they are usually repeats but may differ in a detail not shown here. Identical values can stand only once.

Tests used:
Test in all cases: KINOMEscan competition binding
Conditions in all cases: compound 10.0 µM
[1] = target: ACVR2B (human) (UniProt Q13705)
[2] = target: BTK (human) (UniProt Q06187)
[3] = target: CAMK4 (human) (UniProt Q16566)
[4] = target: CAMKK1 (human) (UniProt Q8N5S9)
[5] = target: CDK2 (human) (UniProt P24941)
[6] = target: CDKL1 (human) (UniProt Q00532)
[7] = target: CDKL5 (human) (UniProt O76039)
[8] = target: CSNK1A1L (human) (UniProt Q8N752)
[9] = target: EPHA2 (human) (UniProt P29317)
[10] = target: EPHA8 (human) (UniProt P29322)
[11] = target: FGR (human) (UniProt P09769)
[12] = target: GSK3A (human) (UniProt P49840)
[13] = target: HIPK4 (human) (UniProt Q8NE63)
[14] = target: ITK (human) (UniProt Q08881)
[15] = target: JAK3 JH1 catalytic (human) (UniProt P52333)
[16] = target: KIT (human) (UniProt P10721)
[17] = target: LIMK2 (human) (UniProt P53671)
[18] = target: MAP2K4 (human) (UniProt P45985)
[19] = target: MAP3K1 (human) (UniProt Q13233)
[20] = target: MAP3K13 (human) (UniProt O43283)
[21] = target: MAP3K7 (human) (UniProt O43318)
[22] = target: MAP4K1 (human) (UniProt Q92918)
[23] = target: MAPKAPK2 (human) (UniProt P49137)
[24] = target: MARK3 (human) (UniProt P27448)
[25] = target: MKNK1 (human) (UniProt Q9BUB5)
[26] = target: MYLK2 (human) (UniProt Q9H1R3)
[27] = target: MYLK3 (human) (UniProt Q32MK0)
[28] = target: NEK6 (human) (UniProt Q9HC98)
[29] = target: NUAK2 (human) (UniProt Q9H093)
[30] = target: PDGFRB (human) (UniProt P09619)
[31] = target: PIM2 (human) (UniProt Q9P1W9)
[32] = target: PIP5K1C (human) (UniProt O60331)
[33] = target: PKN1 (human) (UniProt Q16512)
[34] = target: PRKCD (human) (UniProt Q05655)
[35] = target: PRKCH (human) (UniProt P24723)
[36] = target: PTK2 (human) (UniProt Q05397)
[37] = target: ROCK2 (human) (UniProt O75116)
[38] = target: RPS6KA3 KD1 (human) (UniProt P51812)
[39] = target: RPS6KA4 KD2 (human) (UniProt O75676)
[40] = target: RPS6KA6 KD1 (human) (UniProt Q9UK32)

Sequence of MAP2K4 (human) (P45985 whole entry, looked up): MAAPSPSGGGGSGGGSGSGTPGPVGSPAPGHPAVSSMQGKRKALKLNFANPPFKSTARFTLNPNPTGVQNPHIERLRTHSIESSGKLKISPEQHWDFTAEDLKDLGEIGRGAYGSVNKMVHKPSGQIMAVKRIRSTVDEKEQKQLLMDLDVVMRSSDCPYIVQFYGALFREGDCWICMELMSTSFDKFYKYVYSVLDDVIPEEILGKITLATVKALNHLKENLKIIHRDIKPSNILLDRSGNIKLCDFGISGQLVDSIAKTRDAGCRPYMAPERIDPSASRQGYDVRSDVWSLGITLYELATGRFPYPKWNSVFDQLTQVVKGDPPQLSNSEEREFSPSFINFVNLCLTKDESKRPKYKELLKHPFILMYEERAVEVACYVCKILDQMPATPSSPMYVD
Sequence of PKN1 (human) (Q16512 whole entry, looked up): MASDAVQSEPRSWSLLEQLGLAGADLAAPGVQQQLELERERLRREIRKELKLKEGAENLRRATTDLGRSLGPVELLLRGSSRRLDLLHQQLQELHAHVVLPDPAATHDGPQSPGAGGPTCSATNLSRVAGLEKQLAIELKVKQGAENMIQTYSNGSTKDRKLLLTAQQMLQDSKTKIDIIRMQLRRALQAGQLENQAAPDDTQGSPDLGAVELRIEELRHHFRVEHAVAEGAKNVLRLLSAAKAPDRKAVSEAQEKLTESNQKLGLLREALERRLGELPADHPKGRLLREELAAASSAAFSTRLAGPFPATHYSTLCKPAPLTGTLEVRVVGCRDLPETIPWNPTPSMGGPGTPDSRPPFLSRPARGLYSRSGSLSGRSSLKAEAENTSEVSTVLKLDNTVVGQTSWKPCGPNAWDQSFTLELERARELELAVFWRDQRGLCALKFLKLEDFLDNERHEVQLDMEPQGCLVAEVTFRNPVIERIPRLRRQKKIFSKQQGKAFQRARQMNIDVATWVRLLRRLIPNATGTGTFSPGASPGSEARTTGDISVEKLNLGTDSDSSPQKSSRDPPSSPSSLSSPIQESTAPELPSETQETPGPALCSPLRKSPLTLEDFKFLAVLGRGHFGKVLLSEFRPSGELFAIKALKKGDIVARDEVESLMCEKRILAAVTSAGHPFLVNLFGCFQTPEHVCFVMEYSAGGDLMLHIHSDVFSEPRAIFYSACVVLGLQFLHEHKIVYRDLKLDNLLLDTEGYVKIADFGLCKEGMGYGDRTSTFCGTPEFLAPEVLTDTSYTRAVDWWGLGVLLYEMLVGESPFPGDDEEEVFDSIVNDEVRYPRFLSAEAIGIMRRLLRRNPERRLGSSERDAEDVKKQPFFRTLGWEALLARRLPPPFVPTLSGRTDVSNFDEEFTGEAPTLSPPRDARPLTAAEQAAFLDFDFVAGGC
Sequence of PDGFRB (human) (P09619 whole entry, looked up): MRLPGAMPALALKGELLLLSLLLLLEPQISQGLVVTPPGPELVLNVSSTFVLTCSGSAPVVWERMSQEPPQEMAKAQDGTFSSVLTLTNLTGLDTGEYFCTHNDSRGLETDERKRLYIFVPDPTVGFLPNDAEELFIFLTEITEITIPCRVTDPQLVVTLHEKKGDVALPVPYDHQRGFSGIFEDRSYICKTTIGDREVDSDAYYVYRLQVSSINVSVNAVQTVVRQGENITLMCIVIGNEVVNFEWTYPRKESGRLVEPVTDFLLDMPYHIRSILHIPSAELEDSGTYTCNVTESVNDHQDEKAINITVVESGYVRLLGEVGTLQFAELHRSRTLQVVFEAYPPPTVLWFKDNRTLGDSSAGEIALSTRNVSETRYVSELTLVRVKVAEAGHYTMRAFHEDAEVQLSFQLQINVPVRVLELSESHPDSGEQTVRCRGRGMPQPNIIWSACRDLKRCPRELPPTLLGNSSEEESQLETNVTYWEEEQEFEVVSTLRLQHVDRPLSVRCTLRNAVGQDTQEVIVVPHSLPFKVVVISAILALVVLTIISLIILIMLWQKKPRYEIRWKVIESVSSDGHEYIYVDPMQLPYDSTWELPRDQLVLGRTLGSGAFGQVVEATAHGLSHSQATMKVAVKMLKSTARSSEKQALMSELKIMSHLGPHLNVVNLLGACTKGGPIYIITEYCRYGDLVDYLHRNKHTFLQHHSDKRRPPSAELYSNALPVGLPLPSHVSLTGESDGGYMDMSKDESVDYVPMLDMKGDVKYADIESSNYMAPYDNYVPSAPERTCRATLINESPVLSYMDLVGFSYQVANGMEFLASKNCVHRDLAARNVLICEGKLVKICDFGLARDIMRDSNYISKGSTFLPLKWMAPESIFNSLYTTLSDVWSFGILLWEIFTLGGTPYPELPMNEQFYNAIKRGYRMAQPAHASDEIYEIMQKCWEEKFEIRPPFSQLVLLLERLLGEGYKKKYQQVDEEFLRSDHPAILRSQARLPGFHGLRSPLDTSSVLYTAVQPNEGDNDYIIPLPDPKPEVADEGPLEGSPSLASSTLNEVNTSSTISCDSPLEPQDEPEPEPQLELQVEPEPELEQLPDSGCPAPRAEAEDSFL
Sequence of JAK3 JH1 catalytic (human) (P52333 whole entry, looked up): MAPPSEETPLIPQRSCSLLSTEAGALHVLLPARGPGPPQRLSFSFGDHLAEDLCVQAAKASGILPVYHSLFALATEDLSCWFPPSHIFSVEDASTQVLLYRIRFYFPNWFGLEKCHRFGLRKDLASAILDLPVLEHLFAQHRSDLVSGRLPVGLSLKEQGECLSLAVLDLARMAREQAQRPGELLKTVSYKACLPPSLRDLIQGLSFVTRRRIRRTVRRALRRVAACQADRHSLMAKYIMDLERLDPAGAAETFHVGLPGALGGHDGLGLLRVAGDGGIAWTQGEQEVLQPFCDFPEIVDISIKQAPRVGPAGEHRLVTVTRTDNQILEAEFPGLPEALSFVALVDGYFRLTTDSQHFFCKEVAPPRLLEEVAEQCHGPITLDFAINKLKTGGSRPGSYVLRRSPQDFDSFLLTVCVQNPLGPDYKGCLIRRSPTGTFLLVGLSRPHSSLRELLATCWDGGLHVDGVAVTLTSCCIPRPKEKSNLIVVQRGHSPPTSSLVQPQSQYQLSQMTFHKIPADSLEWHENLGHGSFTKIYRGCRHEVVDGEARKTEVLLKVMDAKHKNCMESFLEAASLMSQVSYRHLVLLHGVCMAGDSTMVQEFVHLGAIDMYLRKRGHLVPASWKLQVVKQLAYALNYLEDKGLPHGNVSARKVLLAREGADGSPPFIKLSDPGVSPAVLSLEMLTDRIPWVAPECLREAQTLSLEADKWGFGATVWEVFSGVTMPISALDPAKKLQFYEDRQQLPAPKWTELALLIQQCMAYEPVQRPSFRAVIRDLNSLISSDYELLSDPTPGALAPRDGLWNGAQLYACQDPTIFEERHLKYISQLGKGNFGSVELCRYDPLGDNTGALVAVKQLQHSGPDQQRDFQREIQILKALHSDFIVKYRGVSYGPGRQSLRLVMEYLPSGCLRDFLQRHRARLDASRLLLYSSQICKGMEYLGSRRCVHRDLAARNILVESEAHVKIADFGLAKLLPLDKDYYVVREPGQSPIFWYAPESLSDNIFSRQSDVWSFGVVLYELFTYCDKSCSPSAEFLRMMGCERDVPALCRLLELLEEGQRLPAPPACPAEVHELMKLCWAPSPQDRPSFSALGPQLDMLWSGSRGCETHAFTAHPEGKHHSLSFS
Sequence of RPS6KA4 KD2 (human) (O75676 whole entry, looked up): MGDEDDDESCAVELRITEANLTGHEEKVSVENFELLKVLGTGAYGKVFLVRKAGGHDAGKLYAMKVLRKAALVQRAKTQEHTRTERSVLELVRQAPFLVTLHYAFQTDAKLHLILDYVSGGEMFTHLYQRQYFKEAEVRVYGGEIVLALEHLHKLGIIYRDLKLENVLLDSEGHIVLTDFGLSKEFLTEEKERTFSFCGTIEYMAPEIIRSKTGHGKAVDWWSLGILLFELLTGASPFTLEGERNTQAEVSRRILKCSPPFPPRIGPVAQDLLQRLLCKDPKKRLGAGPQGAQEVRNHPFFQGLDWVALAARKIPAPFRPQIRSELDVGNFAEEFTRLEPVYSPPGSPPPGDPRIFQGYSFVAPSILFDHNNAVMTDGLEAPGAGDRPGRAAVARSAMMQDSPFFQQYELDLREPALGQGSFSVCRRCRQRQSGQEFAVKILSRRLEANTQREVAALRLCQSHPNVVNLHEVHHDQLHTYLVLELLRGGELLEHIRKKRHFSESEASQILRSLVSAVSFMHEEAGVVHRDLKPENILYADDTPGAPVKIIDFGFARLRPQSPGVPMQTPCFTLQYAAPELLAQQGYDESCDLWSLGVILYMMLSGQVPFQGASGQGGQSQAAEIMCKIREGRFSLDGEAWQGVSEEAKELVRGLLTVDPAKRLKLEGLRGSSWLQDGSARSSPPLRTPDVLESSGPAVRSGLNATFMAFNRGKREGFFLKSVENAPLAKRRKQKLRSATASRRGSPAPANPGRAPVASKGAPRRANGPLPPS
Sequence of CAMKK1 (human) (Q8N5S9 whole entry, looked up): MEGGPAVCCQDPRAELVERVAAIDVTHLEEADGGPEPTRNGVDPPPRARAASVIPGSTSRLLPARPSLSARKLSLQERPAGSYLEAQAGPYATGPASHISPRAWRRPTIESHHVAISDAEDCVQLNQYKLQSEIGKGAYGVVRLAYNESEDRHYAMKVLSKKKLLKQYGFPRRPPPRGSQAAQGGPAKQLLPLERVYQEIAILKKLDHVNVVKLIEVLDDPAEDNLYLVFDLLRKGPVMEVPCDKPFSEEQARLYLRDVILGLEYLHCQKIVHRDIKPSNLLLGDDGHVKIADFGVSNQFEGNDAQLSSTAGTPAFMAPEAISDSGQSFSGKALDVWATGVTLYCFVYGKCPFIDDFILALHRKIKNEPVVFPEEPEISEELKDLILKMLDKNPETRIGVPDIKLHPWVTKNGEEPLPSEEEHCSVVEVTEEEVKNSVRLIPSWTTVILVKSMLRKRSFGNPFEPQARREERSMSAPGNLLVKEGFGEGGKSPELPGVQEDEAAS

SMILES: N#Cc1cc(-c2ccnc(Nc3ccc(-n4cnc(-c5cccnc5)n4)cc3)n2)cc(N2CCOCC2)c1
- kinase still bound, per cent of control [1]: 49%
- kinase still bound, per cent of control [2]: 74%
- kinase still bound, per cent of control [3]: 100%
- kinase still bound, per cent of control [4]: 48%
- kinase still bound, per cent of control [5]: 30%
- kinase still bound, per cent of control [6]: 34%
- kinase still bound, per cent of control [7]: 7%
- kinase still bound, per cent of control [8]: 80%
- kinase still bound, per cent of control [9]: 56%
- kinase still bound, per cent of control [10]: 93%
- kinase still bound, per cent of control [11]: 54%
- kinase still bound, per cent of control [12]: 3.5%
- kinase still bound, per cent of control [13]: 13%
- kinase still bound, per cent of control [14]: 100%
- kinase still bound, per cent of control [15]: 2.2%
- kinase still bound, per cent of control [16]: 0.65%
- kinase still bound, per cent of control [17]: 60%
- kinase still bound, per cent of control [18]: 2.8%
- kinase still bound, per cent of control [19]: 100%
- kinase still bound, per cent of control [20]: 100%
- kinase still bound, per cent of control [21]: 15%
- kinase still bound, per cent of control [22]: 26%
- kinase still bound, per cent of control [23]: 100%
- kinase still bound, per cent of control [24]: 100%
- kinase still bound, per cent of control [25]: 100%
- kinase still bound, per cent of control [26]: 56%
- kinase still bound, per cent of control [27]: 100%
- kinase still bound, per cent of control [28]: 76%
- kinase still bound, per cent of control [29]: 57%
- kinase still bound, per cent of control [30]: 8.2%
- kinase still bound, per cent of control [31]: 100%
- kinase still bound, per cent of control [32]: 100%
- kinase still bound, per cent of control [33]: 48%
- kinase still bound, per cent of control [34]: 65%
- kinase still bound, per cent of control [35]: 83%
- kinase still bound, per cent of control [36]: 77%
- kinase still bound, per cent of control [37]: 25%
- kinase still bound, per cent of control [38]: 69%
- kinase still bound, per cent of control [39]: 100%
- kinase still bound, per cent of control [40]: 60%

SMILES: O=c1[nH]c2ccccc2n1C1CCN(Cc2ccc(-c3nc4cc5[nH]cnc5cc4nc3-c3ccccc3)cc2)CC1
- kinase still bound, per cent of control [1]: 100%
- kinase still bound, per cent of control [2]: 100%
- kinase still bound, per cent of control [3]: 100%
- kinase still bound, per cent of control [4]: 100%
- kinase still bound, per cent of control [5]: 92%
- kinase still bound, per cent of control [6]: 84%
- kinase still bound, per cent of control [7]: 86%
- kinase still bound, per cent of control [8]: 80%
- kinase still bound, per cent of control [9]: 100%
- kinase still bound, per cent of control [10]: 95%
- kinase still bound, per cent of control [11]: 100%
- kinase still bound, per cent of control [12]: 100%
- kinase still bound, per cent of control [13]: 72%
- kinase still bound, per cent of control [14]: 97%
- kinase still bound, per cent of control [15]: 95%
- kinase still bound, per cent of control [16]: 95% and 89%
- kinase still bound, per cent of control [17]: 100%
- kinase still bound, per cent of control [18]: 94%
- kinase still bound, per cent of control [19]: 80%
- kinase still bound, per cent of control [20]: 100%
- kinase still bound, per cent of control [21]: 85%
- kinase still bound, per cent of control [22]: 51%
- kinase still bound, per cent of control [23]: 100%
- kinase still bound, per cent of control [24]: 72%
- kinase still bound, per cent of control [25]: 77%
- kinase still bound, per cent of control [26]: 86%
- kinase still bound, per cent of control [27]: 100%
- kinase still bound, per cent of control [28]: 100%
- kinase still bound, per cent of control [29]: 67%
- kinase still bound, per cent of control [30]: 72%
- kinase still bound, per cent of control [31]: 91%
- kinase still bound, per cent of control [32]: 29%
- kinase still bound, per cent of control [33]: 100%
- kinase still bound, per cent of control [34]: 81%
- kinase still bound, per cent of control [35]: 69%
- kinase still bound, per cent of control [36]: 95%
- kinase still bound, per cent of control [37]: 73%
- kinase still bound, per cent of control [38]: 67%
- kinase still bound, per cent of control [39]: 82%
- kinase still bound, per cent of control [40]: 75%

SMILES: CCN1CCN(Cc2ccc(NC(=O)c3ccc(C)c(/C=C/c4cnc5[nH]ccc5c4OC)c3)cc2C(F)(F)F)CC1
- kinase still bound, per cent of control [1]: 62%
- kinase still bound, per cent of control [2]: 0.3%
- kinase still bound, per cent of control [3]: 100%
- kinase still bound, per cent of control [4]: 100%
- kinase still bound, per cent of control [5]: 96%
- kinase still bound, per cent of control [6]: 61%
- kinase still bound, per cent of control [7]: 78%
- kinase still bound, per cent of control [8]: 100%
- kinase still bound, per cent of control [9]: 1.7%
- kinase still bound, per cent of control [10]: 0.15%
- kinase still bound, per cent of control [11]: 0.15%
- kinase still bound, per cent of control [12]: 100%
- kinase still bound, per cent of control [13]: 5.5%
- kinase still bound, per cent of control [14]: 18%
- kinase still bound, per cent of control [15]: 1.1%
- kinase still bound, per cent of control [16]: 0%
- kinase still bound, per cent of control [17]: 2.9%
- kinase still bound, per cent of control [18]: 76%
- kinase still bound, per cent of control [19]: 71%
- kinase still bound, per cent of control [20]: 20%
- kinase still bound, per cent of control [21]: 4.8%
- kinase still bound, per cent of control [22]: 0%
- kinase still bound, per cent of control [23]: 100%
- kinase still bound, per cent of control [24]: 38%
- kinase still bound, per cent of control [25]: 68%
- kinase still bound, per cent of control [26]: 0.55%
- kinase still bound, per cent of control [27]: 100%
- kinase still bound, per cent of control [28]: 100%
- kinase still bound, per cent of control [29]: 95%
- kinase still bound, per cent of control [30]: 0.05%
- kinase still bound, per cent of control [31]: 100%
- kinase still bound, per cent of control [32]: 84%
- kinase still bound, per cent of control [33]: 16%
- kinase still bound, per cent of control [34]: 49%
- kinase still bound, per cent of control [35]: 100%
- kinase still bound, per cent of control [36]: 67%
- kinase still bound, per cent of control [37]: 34%
- kinase still bound, per cent of control [38]: 14%
- kinase still bound, per cent of control [39]: 30%
- kinase still bound, per cent of control [40]: 42%
